Results on eleven compounds are retold here after publication PMC11042500 (Journal of medicinal chemistry, 2020).

Data set [1] deals with L6 rat myoblast cells. Nature of the data set: Oxygen consumption rate. The following applies: for uncoupling activity (in words): OCR in L6 rat myoblast cells.
The test system of data set [2] is STAM mouse model of NASH. Nature of the data set: STAM. The class given is in vivo, mice. The following applies: SHS4121705 25 mg kg−1 d−1 in food.
The nature of data set [3]: Core body temperature after acute oral dose. The following applies: acute oral dose 5, 20, 50 mg/kg, up to 4 h, C57BL/6 male mice; listed as SHS4121705. The class given is in vivo.
For data set [4] the following is noted: use in humans; cited from earlier work.
For data set [5], the system named is STAM mouse model of NASH. The conditions noted are these: STZ-induced mouse model of NASH; cited from earlier work.

Where two headings read alike, the source gives them in different places.

For `Oc1nc2nonc2nc1Nc1ccccc1F` [12a, 6-((2-Fluorophenyl)amino)-[1,2,5]oxadiazolo[3,4-b]pyrazin-5-ol], the loss of potency in data set [1] (OCR EC50 of 12a compared with parent diamine uncoupler) is 40 ×. For the compound `CN(c1ccccc1F)c1nc2nonc2nc1O` [12ae, 6-((2-Fluorophenyl)(methyl)amino)-[1,2,5]oxadiazolo[3,4-b]pyrazin-5-ol], the “uncoupling activity (in words)” value in data set [1] is “completely devoid of uncoupling activity”. In the case of `Oc1nc2nonc2nc1Nc1ccc(OC(F)(F)F)cc1` [12i, 6-((4-(Trifluoromethoxy)phenyl)amino)-[1,2,5]oxadiazolo[3,4-b]pyrazin-5-ol], in data set [2] (21 days), the ballooning score stood at 0.25 ± 0.16, the inflammation score was found to be 2.38 ± 0.18 and the steatosis score was 0 ± 0. Further, the “NAS score (NAFLD activity score)” value in data set [2] (liver, day 21) came to 2.63 ± 0.18. Moreover, the “effect on core body temperature” value in data set [3] is listed as “no effect”. `Oc1nc2nonc2nc1Nc1ccc(C(F)(F)F)c(F)c1` [12v, 6-((3-Fluoro-4-(trifluoromethyl)phenyl)amino)-[1,2,5]oxadiazolo[3,4-b]pyrazin-5-ol]: the “fold less potent than 12i” value in data set [1] (OCR EC50 relative to 12i) is listed as > 2 fold. As for `Oc1nccnc1Nc1ccccc1F` [16a, 3-((2-Fluorophenyl)amino)pyrazin-2-ol], in data set [1], the “uncoupling activity (in words)” value is “inactive”. With `CCCCCCCCCCc1ccc(Nc2nccnc2O)cc1` [16b, 3-((4-Decylphenyl)amino)pyrazin-2-ol], in data set [1], the “uncoupling activity (in words)” value was “inactive”. `COc1cccc(-c2ccc(Nc3nccnc3O)cc2)c1` [16g, 3-((3′-Methoxy-[1,1′-biphenyl]-4-yl)amino)pyrazin-2-ol]: the “uncoupling activity (in words)” value in data set [1] is “inactive”. Turning to `Oc1nccnc1Nc1ccc(-c2ccc(F)cc2)cc1` [16h, 3-((4′-Fluoro-[1,1′-biphenyl]-4-yl)amino)pyrazin-2-ol], the “uncoupling activity (in words)” value in data set [1] was “inactive”. Regarding `O=[N+]([O-])c1ccc(O)c([N+](=O)[O-])c1` [DNP, 2,4-dinitrophenol], the increase in metabolism in data set [4] is reported as > 50%. For `Fc1cccc(Nc2nc3nonc3nc2Nc2ccccc2F)c1` [compound 9], in data set [5], the fibrosis score result was “reduced”, the inflammation score entry was “reduced” and the liver triglyceride levels entry was “lowered”. As for `COc1nc2nonc2nc1Nc1ccc(OC(F)(F)F)cc1` [compound 13, 6-Methoxy-N-(4-(trifluoromethoxy)phenyl)-[1,2,5]oxadiazolo[3,4-b]pyrazin-5-amine], the “uncoupling activity (in words)” value in data set [1] is “significantly abrogated”.
